“Also recorded” adds a separate entry of the source.
Test system: PRDM14 mRNA expression in SiHa cervical cancer cells
Assay: PRDM14 mRNA expression in SiHa cells after treatment with a DNA methylation inhibitor
Format: cell-based, human
Conditions: DAC at 0.2 μM and 5 μM, controls PBS and ethanol
Method: Treatment of SiHa cervical cancer cells was performed with the methylation inhibitor 2′-deoxy-5′azacytidine (5′-aza or DAC) at 0.2 μM and 5 μM concentration. Other treatments were PBS and ethanol (EtOH). All treatments were in duplicate. Controls are human reference RNA and a -RT control (without reverse transcriptase added to the cDNA reaction mixture).

Nc1ncn([C@H]2C[C@H](O)[C@@H](CO)O2)c(=O)n1 [DAC, 5-aza-2 deoxycytidine] was tested, and the “PRDM14 mRNA expression” value was “upregulated; also recorded: upregulation”.
